Source: PMC7932555, “A diffusible signal factor of the intestine dictates Salmonella invasion through its direct control of the virulence activator HilD” (PLoS Pathogens, 2021)
Where a chain is given by its changes, count along the chain named.

Key:
HilD^N44A = target: T1, HilD^N44A (Salmonella typhimurium, UniProt P0CL08, N44A); assay: EMSA of hilA promoter DNA with HilD N44A; type: biochemical; conditions: 10 nM hilA promoter DNA, 30 μM fatty acid
T1 construct: made in house; host or cells: E. coli BL21 (DE3)
T1 sequence (P0CL08 1-309 N44A): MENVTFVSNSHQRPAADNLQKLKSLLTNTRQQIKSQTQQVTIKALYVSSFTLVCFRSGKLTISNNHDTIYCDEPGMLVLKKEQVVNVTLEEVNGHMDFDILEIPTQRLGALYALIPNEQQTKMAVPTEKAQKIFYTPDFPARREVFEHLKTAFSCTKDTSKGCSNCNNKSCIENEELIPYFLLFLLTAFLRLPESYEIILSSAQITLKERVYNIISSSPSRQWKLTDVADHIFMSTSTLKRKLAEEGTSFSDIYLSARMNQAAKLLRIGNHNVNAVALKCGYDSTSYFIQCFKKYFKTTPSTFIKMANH
Procedure: (§1) These were performed as previously described. Briefly, 10 nM hilA promoter DNA (-286 to +31) was mixed with 150 nM HilD in a binding buffer (100 mM Tris pH 7.5, 10 mM EDTA, 1M KCl, 1 mM DTT, 50% v/v glycerol). Fatty acids or control solvents were added at various concentrations. Binding reaction was performed at room temperature for 1 hour. Dye solution was added to final concentration of 1X and samples were separated on 10% acrylamide gels. DNA was stained using SYBR Safe and visualized in BioRad GelDoc imaging system.

HilD^Q290A = target: T2, HilD^Q290A (Salmonella typhimurium, UniProt P0CL08, Q290A); assay: EMSA of hilA promoter DNA with HilD Q290A; type: biochemical; conditions: 10 nM hilA promoter DNA, 30 μM fatty acid
T2 construct: made in house; host or cells: E. coli BL21 (DE3)
T2 sequence (P0CL08 1-309 Q290A): T1 sequence (P0CL08 1-309 N44A) with A44N, Q290A
Procedure: as §1

`CCCCCCCCCCCCC/C=C\C(=O)O` [c2-HDA, cis-2-hexadecenoic acid] was tested, and the “effect on HilD binding to hilA promoter DNA” value (from here on “effect on HilD binding”) (HilD^N44A) was “retained its binding of target DNA”.
In the case of `CCCCCCCCCCCCC/C=C/C(=O)O` [t2-HDA, trans-2-hexadecenoic acid], the “effect on HilD binding” value (HilD^N44A) is reported as “did not disrupt DNA binding” and the “effect on HilD binding” value (HilD^Q290A) is reported as “did not disrupt DNA binding”.
